Results on two substances are retold here after patent publication US9700609B2, “Compositions for treatment and/or prevention of autoimmune disorders” (University of Florida Research Foundation, Incorporated, priority 2013, dated 2017).

One assay deals with NOD mice. Kind of assay: Systemic Th17 bias after oral feeding or pulsed DC vaccination. It counts as in vivo. The following applies: oral feeding. An excerpt: In apparent contrast, T1D onset can also be inhibited through the generation of Foxp3^+ regulatory T cells which can be mediated by tolerogenic, immature DC. […] Therefore, restoration of DC function by oral administration of specific bacteria, or administration of a vaccine composed of gut flora modified DC, can be used to restore immune tolerance.

Assay [1] deals with CD11b+ and CD11c+ leukocytes (APC). Kind of assay: APC frequency and MHC expression by flow cytometry in splenocyte cultures with graded doses of bacteria and anti-CD3. It counts as cell-based, NOD and NOR mice. How it is done: FIG. 8. LjN6.2, but not LrTD1, increases APC activation in NOD mice. Spleenocytes derived from NOD or NOR mice, were cultured with graded doses of LjN6.2 or LrTD1 in the presence of anti-CD3. Following 48 hours incubation, samples were analyzed through flow cytometry for APC activation. A) Histograms showing changes in CD11b and CD11c frequencies upon treatment of NOD in vitro leukocyte cultures with LjN6.2 (red), LrTD1(black) or CD3 (shaded). B) Graphs showing percentage of CD11b^+ and CD11c^+ leukocytes in NOD and NOR cells cultures incubated with graded doses of bacteria as indicated. C) Graphs showing changes in MHC expression levels on CD11c^+ and CD11b^+ APC upon treatment with graded doses of LjN6.2 (shaded square) or LrTD1 (open square).
(§1) Whole lymphocytes or BMOC were incubated with 4 μg/mL anti-CD3, (LjN6.2) and/or L. reuteri TD1 (LrTD1) at various concentrations as indicated. At 48 hours, 100 μL of supernatant was removed from each well and replenished with fresh medium. Cytokine ELISAs were subsequently performed on harvested supernatants. ELISA kits were purchased from BD Bioscience: anti-IFNγ (555138; BD Biosciences, San Diego, Calif.), and anti-IL6 (555240). Capture mAb (555068) and detection mAb (555067) for IL17 were purchased from BD Biosciences. Cytokine standard for IL-17A was purchased from eBioscience (14-8171-80).
(§2) Single cell suspensions of pooled LN (axillary, inguinal, brachial, mesenteric, and superficial cervical), and spleen were stained with the following mAbs for flow-cytometric analysis: anti-CD4-Pacific Blue (RM4-5), anti-MHC I-FitC (KH95), anti-CD11c-PE (N418; eBioscience, San Diego, Calif.), anti-B220-APC (RA3-6B2, eBioscience), anti-CD11b-A700 (M1/70), anti-CD11b-FitC (M1/70, eBioscience), […] (N418, eBioscience), anti CD86-A700 (GL1), anti-CD80-PE (16-10A1), DEC 205-APC (205yekta) and anti-MHC II-FC (39-10-8) mAb. All flow cytometry antibodies were purchased from BD PharMingen unless otherwise stated. 50,000-100,000 live events were collected on a LSRII (BD PharMingen) and analyzed using FlowJo software (Tree Star, San Carlos, Calif.). The absolute numbers of cells recovered from various organs was determined by multiplying the total number of cells isolated from various tissues by the percentage of total cells bearing a lineage specific marker denoted by flow cytometry.
(In flow cytometry, cells or beads pass a laser one at a time.)

Another assay relates to BBDP rats. The following applies: cited from earlier work; for Th17 bias: BBDP rat and NOD mouse (Lau et al. (2011)); for T1D resistance: oral transfer to BBDP rats (Valladares et al. (2010)).
In a further assay the test system is T lymphocytes. Description: IFNγ production and IFNγ+/IL17+ T lymphocytes after bacterial treatment. It counts as cell-based. The procedure:
FIG. 14. L. johnsonii modulates adaptive immune response. […] Also, L. johnsonii increased the percentages of IFNγ^+ and IL17^+ T lymphocytes in a dose dependent manner.
as §1

Another assay concerns DEC205 on CD11c+ DC. Kind of assay: DEC205 expression on CD11c+ DC in splenocyte cultures, flow cytometry. It counts as cell-based, NOD and NOR mice. The following applies: both NOD and NOR CD11c+ DC, dose dependent. How it is done: FIG. 9. Enhanced DC maturation mediated by LjN6.2 surface antigens. Spleenocytes derived from NOD or NOR mice, were cultured with graded doses of LjN6.2 or LrTD1in the presence of anti-CD3, as in FIG. 4. Subsequent to incubation, samples were analyzed for expression of the endocytic marker, DEC 205. A) Overlay histograms showing changes in DEC205 frequency on CD11c^+ DC upon treatment of NOD cultures with varying doses of LjN6.2 and LrTD1. B) Graphical representations of DEC205 expression on CD11c^+ DC present within NOD and NOR cultures upon incubation with varying doses of LjN6.2 and LrTD1. […]
as §2, with “All flow cytometry antibodies were purchased from BD PharMingen unless otherwise stated.” left out, “The absolute numbers of cells recovered from various organs was determined by multiplying the total number of cells isolated from various tissues by the percentage of total cells bearing a lineage specific marker denoted by flow cytometry.” left out

A further assay relates to BMDC. Kind of assay: IL6 production by BMDC incubated with LjN6.2 or lysed bacterial components, ELISA. It counts as cell-based, NOD mice. To be noted: NOD BMDC matured with GM-CSF. The procedure:
FIG. 9. Enhanced DC maturation mediated by LjN6.2 surface antigens. Spleenocytes derived from NOD or NOR mice, were cultured with graded doses of LjN6.2 or LrTD1in the presence of anti-CD3, as in FIG. 4. Subsequent to incubation, samples were analyzed for expression of the endocytic marker, DEC 205. A) Overlay histograms showing changes in DEC205 frequency on CD11c^+ DC upon treatment of NOD cultures with varying doses of LjN6.2 and LrTD1. B) Graphical representations of DEC205 expression on CD11c^+ DC present within NOD and NOR cultures upon incubation with varying doses of LjN6.2 and LrTD1. C) Maturing DC (BMDC), derived from NOD mice were matured in the presence of GM-CSF, followed by incubation with LjN6.2 or beadbeater lysed LjN6.2 bacterial cellular components. Left, graph showing IL6 production by BMDC incubated with either intact LjN6.2, or fractional equivalents of nonviable lysed LjN6.2 components defined by ultracentrifugation as membrane (pellet components) or cytosolic (soluble) components. […]
Bacterial cells were incubated with 0.1 mm glass beads and homogenized through the use of a beadbeater (Qbiogene) according to manufacturers' instructions. […] Efficiency of bacterial disruption was assessed through the culture of bacterial lysates on agar plates under anaerobic conditions.
A general note: ELISA stands for enzyme-linked immunosorbent assay.

Assay [2] deals with LN cells (CD11b+ leukocytes). Kind of assay: CD11b and CD40 expression in pooled LN cells cultured with bacteria, flow cytometry. To be noted: NOD pooled LN cells, 48 hour incubation. It counts as cell-based, NOD mice. The procedure:
FIG. 12. LjN6.2 but not LrTD1 up-regulates expression of CD11b. LN cells (brachial, inguinal, cervical and mesenteric) were isolated from NOD mice and pooled, followed by culturing in the presence or absence of bacteria. After 48 hour incubation, supernatants were removed and cells were analyzed by flow cytometry. Please note that concentration 1 (Lj1 and Lr1) is 3 fold higher than concentration 2 (Lj2 and Lr2).
FIG. 13. […] LN cells (brachial, inguinal, cervical and mesenteric) were isolated from NOD mice and pooled followed by culture in the presence or absence of bacteria. After 48 hour incubation, supernatants were removed and cells were analyzed by flow cytometry. CD11b^+ cells were first gated and then further analyzed for CD40 expression. Please note that concentration 1 (Lj1 and Lr1) is 3 fold higher than concentration 2 (Lj2 and Lr2).
Single cell suspensions of pooled LN (axillary, inguinal, brachial, mesenteric, and superficial cervical), and spleen were stained with the following mAbs for flow-cytometric analysis: anti-CD4-Pacific Blue (RM4-5), anti-MHC I-FitC (KH95), anti-CD11c-PE (N418; eBioscience, San Diego, Calif.), anti-B220-APC (RA3-6B2, eBioscience), anti-CD11b-A700 (M1/70), anti-CD11b-FitC (M1/70, eBioscience), […] (N418, eBioscience), anti CD86-A700 (GL1), anti-CD80-PE (16-10A1), DEC 205-APC (205yekta) and anti-MHC II-FC (39-10-8) mAb. […]

Turning to Lactobacillus johnsonii N6.2 [LjN6.2], in the assay with NOD mice, the “systemic Th17 bias” value is “sufficient to mediate a systemic Th17 bias”. Moreover, the “levels of MHC classes I and II on CD11c+ DC” value in assay [1] (NOD derived CD11c+ DC, dose dependent) is recorded as “upregulated”. Also, the “frequency of both CD11b+ and CD11c+ leukocytes” value in assay [1] (NOD derived primary cell cultures, graded doses, anti-CD3, 48 hours) is reported as “consistently up-regulated”. Besides, in assay [1] (NOR cultures, graded doses, anti-CD3, 48 hours), the “frequency of CD11b+ and CD11c+ leukocytes” value is reported as “only moderately increased”. The “MHCI and MHCII expression on CD11c+ DC” value in assay [1] (NOR derived CD11c+ DC) is “failed to specifically increase”. In addition, in assay [1] (both NOD and NOR cultures), the “CD11b+MHCIhi leukocytes” value is “decrease” and the “frequency of CD11b+MHCIIhi leukocytes” value is “increase”. In the assay on BBDP rats, the Th17 bias entry is “APC dependent, Th17 bias observed” and the T1D resistance entry is on record as “sufficient to confer T1D resistance”. Moreover, in the assay on T lymphocytes (compared with L. reuteri), the IFNγ production entry is reported as “more profoundly than L. reuteri”. Moreover, the “percentages of IFNγ+ and IL17+ T lymphocytes” value in the assay with T lymphocytes (dose dependent) is on record as “increased”. Also, in the assay on DEC205 on CD11c+ DC, the “DEC205 expression on CD11c+ DC” value was “down-regulation”. The “IL6 production by BMDC” value in the assay on BMDC is reported as “copious amounts”. In assay [2], the CD11b expression entry was “up-regulates” and the “CD40 expression on CD11b+ leukocytes” value is reported as “up-regulated”.

Regarding L. reuteri TD1 [LrTD1], in assay [1] (CD11c+ and CD11b+ APC, in contrast to LjN6.2), the “modulation of MHC” value is given as “reduced, or negligible”. In the assay on BBDP rats, the Th17 bias entry is recorded as “nor mediated a Th17 bias” and the T1D resistance result is given as “neither conferred T1D resistance”.
